Reference: PMC7311426, “An amphipathic peptide with antibiotic activity against multidrug-resistant Gram-negative bacteria” (Nature Communications, 2020)
Converted amounts (≈) assume the structure as drawn. Where two headings read alike, the source gives them in different places.

Experiments:
Test in all cases: microbe, parasite or virus in culture
[1] = system: A. baumannii clinical isolates
Protocol: The in vitro activity of AA139 and comparator antimicrobials was determined in two panels of clinical isolates of E. coli, K. pneumoniae, P. aeruginosa, and A. baumannii (Supplementary Table 3), and MIC90 presented. The US panel consisted of 331 clinical isolates from 2010 to 2012. It was tested by BMD in accordance with the CLSI guidelines (M07-A9, 2012)[39]. […] AA139 was diluted in 0.01% acetic acid/0.1% bovine serum albumin. Sterile polypropylene culture cluster round-bottom 96-well plates (Costar # 3879) were used for testing. The worldwide panel consisted of 445 clinical isolates from 2011 to 2013, geographically divided into Asia, Europe, North America, and Rest of World (Middle East, Latin America, Africa, and South Pacific) with each region representing ~25% of the isolates. It was tested by broth microdilution in accordance with the CLSI guidelines (M07-A9, 2012)[39]. […] The test media was CAMHB (Becton Dickinson). AA139 and polymyxin B were tested in media supplemented with 0.002% Tween 80 (Calbiochem). MIC90 values were calculated for all or subsets of the isolates. MIC correlation between AA139 and colistin was analyzed with data from the US panel.

[2] = system: P. aeruginosa; settings: Pseudomonas aeruginosa
Method in brief: (§1)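 Broth microdilution in MHB, 2-fold 12-point series from 128 or 64 down to 0.06 or 0.03 μg mL^−1, 5 × 10^5 CFU mL^−1. Extra runs in CAMHB per CLSI and in MHB with 1% agarose; n ≥ 6.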

[3] = system: K. pneumoniae; settings: Klebsiella pneumoniae
Method in brief: as §1

[4] = A. baumannii, worldwide isolates 2011-2013, n = 108

## C[C@H]1COc2c(N3CCN(C)CC3)c(F)cc3c(=O)c(C(=O)O)cn1c23 [LEV, levofloxacin, reference compound]
[1]; [4]
  MIC50: 16 µg/mL (≈ 44.3 µM)
  MIC90: > 32 µg/mL
[1]; A. baumannii, worldwide isolates 2011-2013, n = 108, count of isolates at MIC 0.03
  Number of isolates with MIC 0.03 (MIC frequency distribution): 1
[1]; A. baumannii, worldwide isolates 2011-2013, n = 108, count of isolates at MIC 0.06
  Number of isolates with MIC 0.06 (MIC frequency distribution): 4
[1]; A. baumannii, worldwide isolates 2011-2013, n = 108, count of isolates at MIC 0.125
  Number of isolates with MIC 0.125 (MIC frequency distribution): 8
[1]; A. baumannii, worldwide isolates 2011-2013, n = 108, count of isolates at MIC 0.25
  Number of isolates with MIC 0.25 (MIC frequency distribution): 2
[1]; A. baumannii, worldwide isolates 2011-2013, n = 108, count of isolates at MIC 0.5
  Number of isolates with MIC 0.5 (MIC frequency distribution): 3
[1]; A. baumannii, worldwide isolates 2011-2013, n = 108, count of isolates at MIC 1
  Number of isolates with MIC 1 (MIC frequency distribution): 0
[1]; A. baumannii, worldwide isolates 2011-2013, n = 108, count of isolates at MIC 2
  Number of isolates with MIC 2 (MIC frequency distribution): 0
[1]; A. baumannii, worldwide isolates 2011-2013, n = 108, count of isolates at MIC 4
  Number of isolates with MIC 4 (MIC frequency distribution): 6
[1]; A. baumannii, worldwide isolates 2011-2013, n = 108, count of isolates at MIC 8
  Number of isolates with MIC 8 (MIC frequency distribution): 22
[1]; A. baumannii, worldwide isolates 2011-2013, n = 108, count of isolates at MIC 16
  Number of isolates with MIC 16 (MIC frequency distribution): 20
[1]; A. baumannii, worldwide isolates 2011-2013, n = 108, count of isolates at MIC 32
  Number of isolates with MIC 32 (MIC frequency distribution): 19
[1]; A. baumannii, worldwide isolates 2011-2013, n = 108, count of isolates at MIC 64
  Number of isolates with MIC 64 (MIC frequency distribution): 0
[1]; A. baumannii, worldwide isolates 2011-2013, n = 108, count of isolates at MIC 128
  Number of isolates with MIC 128 (MIC frequency distribution): 0
[1]; A. baumannii, worldwide isolates 2011-2013, n = 108, count of isolates at MIC >16
  Number of isolates with MIC >16 (MIC frequency distribution): 0
[1]; A. baumannii, worldwide isolates 2011-2013, n = 108, count of isolates at MIC >32
  Number of isolates with MIC >32 (MIC frequency distribution): 23
[1]; A. baumannii, worldwide isolates 2011-2013, n = 108, count of isolates at MIC >128
  Number of isolates with MIC >128 (MIC frequency distribution): 0
[1]; A. baumannii, worldwide isolates 2011-2013, n = 108, count of isolates at MIC ≤0.015
  Number of isolates with MIC ≤0.015 (MIC frequency distribution): 0
[1]; Acinetobacter baumannii
  MIC90: > 32 µg/mL
[2]; ATCC27853, read-out: MIC, broth microdilution, P. aeruginosa ATCC 27853 spontaneous mutant, AA139 selection 4X, plate 1, colony 2, drug-free passage 1
  MIC: 2 µg/mL (≈ 5.53 µM)
[2]; ATCC27853, read-out: MIC, broth microdilution, P. aeruginosa ATCC 27853 spontaneous mutant, AA139 selection 4X, plate 1, colony 3, drug-free passage 5
  MIC: 2 µg/mL (≈ 5.53 µM)
[2]; ATCC27853, read-out: MIC, broth microdilution, P. aeruginosa ATCC 27853 spontaneous mutant, AA139 selection 4X, plate 1, colony 4, drug-free passage 1
  MIC: 2 µg/mL (≈ 5.53 µM)
[2]; ATCC27853, read-out: MIC, broth microdilution, P. aeruginosa ATCC 27853 spontaneous mutant, AA139 selection 4X, plate 1, colony 5, drug-free passage 1
  MIC: 2 µg/mL (≈ 5.53 µM)
[2]; ATCC27853, read-out: MIC, broth microdilution, P. aeruginosa ATCC 27853 spontaneous mutant, AA139 selection 4X, plate 1, colony 5, drug-free passage 5
  MIC: 2 µg/mL (≈ 5.53 µM)
[2]; ATCC27853, read-out: MIC, broth microdilution, P. aeruginosa ATCC 27853 spontaneous mutant, AA139 selection 4X, plate 1, colony 6, drug-free passage 1
  MIC: 2 µg/mL (≈ 5.53 µM)
[2]; ATCC27853, read-out: MIC, broth microdilution, P. aeruginosa ATCC 27853 spontaneous mutant, AA139 selection 4X, plate 2, colony 1, drug-free passage 1
  MIC: 2 µg/mL (≈ 5.53 µM)
[2]; ATCC27853, read-out: MIC, broth microdilution, P. aeruginosa ATCC 27853 spontaneous mutant, AA139 selection 4X, plate 2, colony 2, drug-free passage 1
  MIC: 2 µg/mL (≈ 5.53 µM)
[2]; ATCC27853, read-out: MIC, broth microdilution, P. aeruginosa ATCC 27853 spontaneous mutant, AA139 selection 8X, plate 1, colony 1, drug-free passage 5
  MIC: 2 µg/mL (≈ 5.53 µM)
[2]; ATCC27853, read-out: MIC, broth microdilution, P. aeruginosa ATCC 27853 spontaneous mutant, AA139 selection 8X, plate 1, colony 2, drug-free passage 1
  MIC: 2 µg/mL (≈ 5.53 µM)
[2]; read-out: MIC, broth microdilution, P. aeruginosa UNT 138-1 spontaneous mutant, AA139 selection 4X, plate 1, colony 1, drug-free passage 1
  MIC: 2 µg/mL (≈ 5.53 µM)
[3]; read-out: MIC, broth microdilution, K. pneumoniae 3010 spontaneous mutant, AA139 selection 4X, plate 1, colony 1, drug-free passage 1
  MIC: 0.06 µg/mL (≈ 0.166 µM)
[3]; read-out: MIC, broth microdilution, K. pneumoniae 3010 spontaneous mutant, AA139 selection 4X, plate 1, colony 1, drug-free passage 5
  MIC: 0.06 µg/mL (≈ 0.166 µM)
[3]; read-out: MIC, broth microdilution, K. pneumoniae 3010 spontaneous mutant, AA139 selection 8X, plate 1, colony 1, drug-free passage 1
  MIC: 0.06 µg/mL (≈ 0.166 µM)
[3]; read-out: MIC, broth microdilution, K. pneumoniae 3010 spontaneous mutant, AA139 selection 8X, plate 1, colony 1, drug-free passage 5
  MIC: 0.06 µg/mL (≈ 0.166 µM)
